In US11878970B2, “Allosteric chromenone inhibitors of phosphoinositide 3-kinase (PI3K) for the treatment of disease” (Petra Pharma Corporation, priority 2021, dated 2024) one finds IC50 data, which are given here for ten compounds.

Assay [1] addresses T1, PI3K-α (PIK3CA) wild-type (WT), p110α/p85α complex (Homo sapiens, UniProt P42336).
T1 construct: Recombinant, catalytically active human full length PIK3KA Wild-type and H1047R mutant; 6×His (N); purchased EMD Millipore Sigma 14-602M
In words: PI3K-alpha kinase (PIK3CA) biochemical activity, ADP-Glo, wild-type. The conditions noted are these: Soy PI lipid substrate. In outline:
(§1)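 ADP formation measured by ADP-Glo luminescence after reaction at 27 °C to about 10% ATP turnover, using 20 uM ATP, 50 uM PIP2diC8 or soy PI lipid, HEPES pH 7.4 with MgCl2. Enzyme (1-5 nM WT or H1047R p110α/p85α) and compound preincubated 1 h first; 10-point 1:3 curves fitted four-parameter for IC50.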
On the technique in general: ADP-Glo turns the ADP formed in a reaction into a luminescent signal.

For assay [2], the target named is T2, PI3K-α (PIK3CA) H1047R mutant, p110α/p85α complex (Homo sapiens, UniProt P42336, H1047R).
T2 construct: Recombinant, catalytically active human full length PIK3KA Wild-type and H1047R mutant; 6×His (N); purchased EMD Millipore Sigma 14-792M
T2 sequence (P42336 whole entry H1047R): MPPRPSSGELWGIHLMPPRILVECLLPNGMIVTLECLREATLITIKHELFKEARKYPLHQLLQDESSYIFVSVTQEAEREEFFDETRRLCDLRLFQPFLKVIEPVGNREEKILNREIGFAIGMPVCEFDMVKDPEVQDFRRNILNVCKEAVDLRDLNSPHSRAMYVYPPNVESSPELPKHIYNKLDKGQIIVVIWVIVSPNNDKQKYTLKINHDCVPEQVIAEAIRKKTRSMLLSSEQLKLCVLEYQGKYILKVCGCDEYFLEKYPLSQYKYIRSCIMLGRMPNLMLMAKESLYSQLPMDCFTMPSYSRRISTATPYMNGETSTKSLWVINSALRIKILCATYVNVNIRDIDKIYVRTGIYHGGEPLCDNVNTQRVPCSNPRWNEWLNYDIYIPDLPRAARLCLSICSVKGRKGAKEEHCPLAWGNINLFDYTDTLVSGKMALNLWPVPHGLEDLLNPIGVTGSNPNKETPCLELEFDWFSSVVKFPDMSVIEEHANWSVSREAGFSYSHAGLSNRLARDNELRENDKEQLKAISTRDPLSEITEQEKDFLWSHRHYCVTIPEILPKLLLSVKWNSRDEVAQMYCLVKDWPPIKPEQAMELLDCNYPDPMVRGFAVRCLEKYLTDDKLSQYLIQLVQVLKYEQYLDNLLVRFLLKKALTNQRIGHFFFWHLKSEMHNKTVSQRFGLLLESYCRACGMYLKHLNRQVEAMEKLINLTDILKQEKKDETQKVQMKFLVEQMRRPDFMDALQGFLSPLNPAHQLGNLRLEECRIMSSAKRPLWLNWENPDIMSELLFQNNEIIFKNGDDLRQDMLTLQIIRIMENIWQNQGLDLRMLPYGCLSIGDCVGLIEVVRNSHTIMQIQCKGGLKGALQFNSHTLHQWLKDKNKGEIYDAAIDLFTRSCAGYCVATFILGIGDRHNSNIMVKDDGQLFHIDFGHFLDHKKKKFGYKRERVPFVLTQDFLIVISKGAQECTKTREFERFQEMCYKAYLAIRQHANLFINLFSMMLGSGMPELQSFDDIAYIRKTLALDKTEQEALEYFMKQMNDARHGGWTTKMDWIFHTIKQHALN
T2 sequence (P27986 whole entry partner): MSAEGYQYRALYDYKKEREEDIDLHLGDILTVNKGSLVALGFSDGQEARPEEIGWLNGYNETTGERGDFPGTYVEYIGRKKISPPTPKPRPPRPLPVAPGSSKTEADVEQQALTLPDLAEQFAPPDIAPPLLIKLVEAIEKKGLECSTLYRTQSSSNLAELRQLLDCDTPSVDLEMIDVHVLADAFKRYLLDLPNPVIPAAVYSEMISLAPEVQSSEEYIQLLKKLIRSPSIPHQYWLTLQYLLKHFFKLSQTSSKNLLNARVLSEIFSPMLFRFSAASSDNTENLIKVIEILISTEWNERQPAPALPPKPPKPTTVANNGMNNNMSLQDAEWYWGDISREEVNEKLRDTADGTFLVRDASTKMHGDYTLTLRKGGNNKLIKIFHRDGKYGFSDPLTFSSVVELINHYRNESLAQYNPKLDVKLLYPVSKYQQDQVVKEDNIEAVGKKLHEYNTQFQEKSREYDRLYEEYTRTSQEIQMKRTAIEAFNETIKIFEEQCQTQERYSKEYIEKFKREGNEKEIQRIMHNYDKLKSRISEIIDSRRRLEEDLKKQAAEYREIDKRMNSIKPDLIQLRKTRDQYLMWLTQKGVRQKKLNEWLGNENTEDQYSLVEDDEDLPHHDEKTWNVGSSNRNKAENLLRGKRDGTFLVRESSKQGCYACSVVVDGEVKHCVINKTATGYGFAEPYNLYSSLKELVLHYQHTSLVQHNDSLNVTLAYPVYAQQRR
The experiment in a line: PI3K-alpha kinase (PIK3CA) biochemical activity, ADP-Glo, H1047R mutant. To be noted: Soy PI lipid substrate. Summed up: as §1

The target of assay [3] is PI3K-α (PIK3CA) in MDA-MB-453 cells (Homo sapiens, UniProt P42336). The experiment in a line: PI3K-alpha kinase (PIK3CA) in vitro cell based assay, MDA-MB-453 cells, SureFire Ultra AlphaLisa. To be noted: read-out: PI3K-α (PIK3CA) in vitro cell based assay IC50. Summed up:
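Cells treated 3 h in serum-free MEM with 1 μg/mL insulin, 10-point 1:3 series in 0.3% DMSO, then lysed for SureFire Ultra AlphaLisa read-out. Inhibition normalized to DMSO (max) and 1 μM GDC-0032 (min); duplicate averages fitted by 4-parameter logistic for relative IC50.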
For orientation: In Alpha technology, singlet oxygen from a donor bead excites a nearby acceptor bead.

Sequence of PI3K-α (PIK3CA) in MDA-MB-453 cells (P27986 2-724): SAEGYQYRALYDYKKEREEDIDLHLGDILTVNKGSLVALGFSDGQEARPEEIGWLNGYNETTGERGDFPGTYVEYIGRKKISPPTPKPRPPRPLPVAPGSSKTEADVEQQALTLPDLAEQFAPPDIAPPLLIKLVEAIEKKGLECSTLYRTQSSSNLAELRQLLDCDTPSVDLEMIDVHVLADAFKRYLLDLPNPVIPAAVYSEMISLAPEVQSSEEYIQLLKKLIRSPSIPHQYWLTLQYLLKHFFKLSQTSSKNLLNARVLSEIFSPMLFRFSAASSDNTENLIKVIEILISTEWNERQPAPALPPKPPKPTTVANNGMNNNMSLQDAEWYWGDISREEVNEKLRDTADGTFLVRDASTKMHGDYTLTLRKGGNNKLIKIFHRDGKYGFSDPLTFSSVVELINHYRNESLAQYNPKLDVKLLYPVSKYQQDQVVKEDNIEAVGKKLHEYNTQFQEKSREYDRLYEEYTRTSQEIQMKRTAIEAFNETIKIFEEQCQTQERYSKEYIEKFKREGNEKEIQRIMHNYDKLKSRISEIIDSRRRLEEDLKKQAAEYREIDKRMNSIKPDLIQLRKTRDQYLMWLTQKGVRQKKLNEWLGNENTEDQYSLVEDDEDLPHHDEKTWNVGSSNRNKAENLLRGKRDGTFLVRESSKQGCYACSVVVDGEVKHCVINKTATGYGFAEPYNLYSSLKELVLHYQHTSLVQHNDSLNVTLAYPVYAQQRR
Sequence of PI3K-α (PIK3CA) in MDA-MB-453 cells (P42336 whole entry): as the sequence (P42336 whole entry H1047R) above, with R1047H counted along it

By IC50 is commonly meant the concentration that inhibits the measured activity by half. Regarding `CC(Nc1ccccc1C(=O)O)c1cc(F)cc2c(=O)cc(-c3cc4ccccc4[nH]3)oc12` (single isomer, unassigned) [Example 128, 2-[1-[6-Fluoro-2-(1H-indol-2-yl)-4-oxo-chromen-8-yl]ethylamino]benzoic acid], the figures for the 50% inhibitory concentration (IC50) in assay [1], in assay [2] and in assay [3] were 500 to 1000 nM, below 500 nM and below 50 nM, respectively.

`Cc1cc(C(C)Nc2ccccc2C(=O)O)c2oc(-c3cc4cnccc4o3)c(C)c(=O)c2c1` (single isomer, unassigned) [Example 153, 2-[1-(2-Furo[3,2-c]pyridin-2-yl-3,6-dimethyl-4-oxo-chromen-8-yl)ethylamino]benzoic acid]: the IC50 was below 500 nM in assay [1], below 500 nM in assay [2] and below 50 nM in assay [3].

As for `COc1ccc2cc(-c3cc(=O)c4cc(C)cc([C@@H](C)Nc5ccccc5C(=O)O)c4o3)cc(C)c2n1` [Example 248, 2-[[(1R)-1-[2-(2-Methoxy-8-methyl-6-quinolyl)-6-methyl-4-oxo-chromen-8-yl]ethyl]amino]benzoic acid], the IC50 in assay [1] lay in the range of 1000 to 5000 nM; in assay [2] it was 500 to 1000 nM; in assay [3] it was 100 to 500 nM.

Turning to `Cc1cc(C(C)Nc2ccccc2C(=O)O)c2oc(-c3cnc4cc[nH]c4c3)cc(=O)c2c1` (single isomer, unassigned) [Example 71, 2-[1-[6-Methyl-4-oxo-2-(1H-pyrrolo[3,2-b]pyridin-6-yl)chromen-8-yl]ethylamino]benzoic acid], the values for the IC50 in assay [1], in assay [2] and in assay [3] were 1000 to 5000 nM, below 500 nM and 100 to 500 nM, respectively.

On to `Cc1cc(-c2cc(=O)c3cc(C(F)(F)F)cc(C(C)Nc4ccc(Cl)nc4C(=O)O)c3o2)cc2cn(C)nc12` (single isomer, unassigned) [Example 192, 6-Chloro-3-[1-[2-(2,7-dimethylindazol-5-yl)-4-oxo-6-(trifluoromethyl)chromen-8-yl]ethylamino]pyridine-2-carboxylic acid], for which the figures for the IC50 in assay [1], in assay [2] and in assay [3] were 500 to 1000 nM, 500 to 1000 nM and above 500 nM, respectively.

For the compound `Cc1cc(C(C)Nc2ccccc2C(=O)O)c2oc(-c3ccc4ncccc4n3)cc(=O)c2c1` (single isomer, unassigned) [Example 252, 2-[1-[6-Methyl-2-(1,5-naphthyridin-2-yl)-4-oxo-chromen-8-yl]ethylamino]benzoic acid], the values for the IC50 in assay [1], in assay [2] and in assay [3] were 1000 to 5000 nM, 500 to 1000 nM and below 50 nM, respectively.

Regarding `Cc1cc(C(C)Nc2ccccc2C(=O)O)c2oc(-c3cccc4nn(C)cc34)cc(=O)c2c1` (single isomer, unassigned) [Example 111, 2-[1-[6-Methyl-2-(2-methylindazol-4-yl)-4-oxo-chromen-8-yl]ethylamino]benzoic acid], the IC50 was 500 to 1000 nM in assay [1], below 500 nM in assay [2] and 100 to 500 nM in assay [3].

For `Cc1cc([C@@H](C)Nc2ccccc2C(=O)O)c2oc(-c3ccc4c(cnn4Cc4ccccc4)c3)c(C)c(=O)c2c1` [Example 211, 2-[[(1R)-1-[2-(1-Benzylindazol-5-yl)-3,6-dimethyl-4-oxo-chromen-8-yl]ethyl]amino]benzoic acid], the IC50 in assay [1] was 500 to 1000 nM; in assay [2], below 500 nM; in assay [3], 50 to 100 nM.

With `Cc1cc(C(C)Nc2ccc(Cl)nc2C(=O)O)c2oc(-c3ccc4cnn(C)c4c3)cc(=O)c2c1` (single isomer, unassigned) [Example 220, 6-Chloro-3-[1-[6-methyl-2-(1-methylindazol-6-yl)-4-oxo-chromen-8-yl]ethylamino]pyridine-2-carboxylic acid], the half-inhibitory concentration (IC50) was below 500 nM in assay [1], below 500 nM in assay [2] and below 50 nM in assay [3].

Regarding `Cc1cc([C@@H](C)Nc2ccc(Cl)nc2C(=O)O)c2oc(-c3ccc4nc(C)sc4c3)c(C)c(=O)c2c1` [Example 246, 6-Chloro-3-[[(1R)-1-[3,6-dimethyl-2-(2-methyl-l,3-benzothiazol-6-yl)-4-oxo-chromen-8-yl]ethyl]amino]pyridine-2-carboxylic acid], the figures for the half-maximal inhibitory concentration (IC50) in assay [1], in assay [2] and in assay [3] were 500 to 1000 nM, below 500 nM and below 50 nM, respectively.
